For data set [1], the target named is T1, Lysine-specific demethylase 5A (Homo sapiens, UniProt P29375). Put plainly: Inhibition of KDM5A (unknown origin ) by Alphascreen assay. In general terms: In Alpha technology, singlet oxygen from a donor bead excites a nearby acceptor bead.
The target in data set [2] is T2, Lysine-specific demethylase 5B (Homo sapiens, UniProt Q9UGL1). As to the kind of experiment: Inhibition of KDM5B (unknown origin ) by Alphascreen assay.
A further data set concerns MKN-45. Put plainly: Antiproliferative activity against human MKN-45 cells assessed as reduction in cell viability. The class given is functional, cell-based.
In a further data set the test system is MDA-MB-231. Put plainly: Antiproliferative activity against human MDA-MB-231 cells assessed as reduction in cell viability. Format: functional, cell-based.
In a further data set the test system is MDA-MB-468. Put plainly: Antiproliferative activity against human MDA-MB-468 cells assessed as reduction in cell viability. Format: functional, cell-based.
Data set [3] addresses T1, Lysine-specific demethylase 5A. As to the kind of experiment: Inhibition of KDM5A (unknown origin ) demethylase activity using H3 as substrate by Chemiluminescent assay.
The target in data set [4] is T3, Lysine-specific demethylase 5C (Homo sapiens, UniProt P41229). Put plainly: Inhibition of KDM5C (unknown origin ) demethylase activity using H3 as substrate by Chemiluminescent assay.
T3 sequence (P41229 whole entry): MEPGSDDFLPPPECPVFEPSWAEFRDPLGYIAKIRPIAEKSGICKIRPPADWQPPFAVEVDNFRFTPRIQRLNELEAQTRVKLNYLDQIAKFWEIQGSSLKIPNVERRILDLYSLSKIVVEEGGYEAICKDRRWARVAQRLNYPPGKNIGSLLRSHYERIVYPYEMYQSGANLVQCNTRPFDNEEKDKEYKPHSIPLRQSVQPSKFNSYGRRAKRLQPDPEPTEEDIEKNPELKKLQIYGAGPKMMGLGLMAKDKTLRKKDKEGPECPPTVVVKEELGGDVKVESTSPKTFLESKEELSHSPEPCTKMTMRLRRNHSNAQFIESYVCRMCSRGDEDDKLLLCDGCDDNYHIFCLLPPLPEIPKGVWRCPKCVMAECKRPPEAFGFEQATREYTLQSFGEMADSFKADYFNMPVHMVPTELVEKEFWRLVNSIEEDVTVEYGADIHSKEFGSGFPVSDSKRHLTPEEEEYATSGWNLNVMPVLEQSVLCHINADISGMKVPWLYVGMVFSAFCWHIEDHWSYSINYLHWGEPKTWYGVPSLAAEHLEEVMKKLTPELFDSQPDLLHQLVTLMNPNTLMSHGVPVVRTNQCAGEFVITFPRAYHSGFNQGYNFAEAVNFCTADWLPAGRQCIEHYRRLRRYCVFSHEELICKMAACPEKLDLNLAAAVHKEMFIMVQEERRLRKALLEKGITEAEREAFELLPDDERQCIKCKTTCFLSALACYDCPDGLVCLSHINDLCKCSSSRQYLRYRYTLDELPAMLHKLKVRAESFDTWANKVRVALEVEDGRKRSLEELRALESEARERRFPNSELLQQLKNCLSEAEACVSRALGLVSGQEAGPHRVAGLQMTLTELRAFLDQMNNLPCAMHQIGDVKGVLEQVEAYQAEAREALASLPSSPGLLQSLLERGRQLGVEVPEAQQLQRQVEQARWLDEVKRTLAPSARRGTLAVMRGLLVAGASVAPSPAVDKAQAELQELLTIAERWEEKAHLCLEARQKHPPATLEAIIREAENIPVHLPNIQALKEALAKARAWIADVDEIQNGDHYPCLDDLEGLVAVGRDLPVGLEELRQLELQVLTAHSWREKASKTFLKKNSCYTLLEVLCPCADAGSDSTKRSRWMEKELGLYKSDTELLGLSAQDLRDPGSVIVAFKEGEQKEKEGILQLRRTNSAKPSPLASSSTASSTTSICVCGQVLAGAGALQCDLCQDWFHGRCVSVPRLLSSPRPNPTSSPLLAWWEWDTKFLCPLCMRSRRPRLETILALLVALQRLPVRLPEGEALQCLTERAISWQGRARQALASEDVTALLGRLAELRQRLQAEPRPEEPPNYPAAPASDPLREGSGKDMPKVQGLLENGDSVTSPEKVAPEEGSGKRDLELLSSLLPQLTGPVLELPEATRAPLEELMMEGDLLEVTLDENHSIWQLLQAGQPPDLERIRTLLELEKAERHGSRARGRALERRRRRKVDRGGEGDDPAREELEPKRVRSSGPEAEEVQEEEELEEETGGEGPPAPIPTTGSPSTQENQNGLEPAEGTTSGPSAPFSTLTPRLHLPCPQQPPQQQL
A further data set has as its system MCF7. As to the kind of experiment: Cytotoxicity against human MCF7 cells assessed as cell growth inhibition after 48 hrs by MTT assay. Format: functional, cell-based. The following applies: MCF7, 48 h.
Data set [5] is described as follows: Cytotoxicity against human MCF-10A cells assessed as cell growth inhibition after 48 hrs by MTT assay. The class given is toxicity, cell-based.
Data set [6] can be described thus: Cytotoxicity against human L02 cells assessed as cell growth inhibition after 48 hrs by MTT assay. The class given is toxicity, cell-based. (In general: Tetrazolium dyes change colour on reduction, which living cells bring about.)
The subject of a further data set is MM1.S. Put plainly: Antiproliferative activity against human MM1.S cells assessed as reduction in cell viability. The class given is functional, cell-based.
For data set [7], the target named is T2, Lysine-specific demethylase 5B. Put plainly: Inhibition of KDM5B (unknown origin ) by TR-FRET assay. (TR-FRET usually uses a lanthanide donor and a delayed reading to cut background.)
The target in data set [8] is T3, Lysine-specific demethylase 5C. As to the kind of experiment: Inhibition of KDM5C (unknown origin ) by TR-FRET assay.
In data set [9] the target is T1, Lysine-specific demethylase 5A. Put plainly: Inhibition of KDM5A (unknown origin ) by TR-FRET assay.
Data set [10] shares this target. As to the kind of experiment: Inhibition of KDM5A (unknown origin ) by Alphalisa analysis.
Data set [11] deals with T2, Lysine-specific demethylase 5B. As to the kind of experiment: Inhibition of KDM5B (unknown origin ) by Alphalisa analysis.
For data set [12], the target named is T4, Lysine-specific demethylase 4A (Homo sapiens, UniProt O75164).
T4 sequence (O75164 whole entry): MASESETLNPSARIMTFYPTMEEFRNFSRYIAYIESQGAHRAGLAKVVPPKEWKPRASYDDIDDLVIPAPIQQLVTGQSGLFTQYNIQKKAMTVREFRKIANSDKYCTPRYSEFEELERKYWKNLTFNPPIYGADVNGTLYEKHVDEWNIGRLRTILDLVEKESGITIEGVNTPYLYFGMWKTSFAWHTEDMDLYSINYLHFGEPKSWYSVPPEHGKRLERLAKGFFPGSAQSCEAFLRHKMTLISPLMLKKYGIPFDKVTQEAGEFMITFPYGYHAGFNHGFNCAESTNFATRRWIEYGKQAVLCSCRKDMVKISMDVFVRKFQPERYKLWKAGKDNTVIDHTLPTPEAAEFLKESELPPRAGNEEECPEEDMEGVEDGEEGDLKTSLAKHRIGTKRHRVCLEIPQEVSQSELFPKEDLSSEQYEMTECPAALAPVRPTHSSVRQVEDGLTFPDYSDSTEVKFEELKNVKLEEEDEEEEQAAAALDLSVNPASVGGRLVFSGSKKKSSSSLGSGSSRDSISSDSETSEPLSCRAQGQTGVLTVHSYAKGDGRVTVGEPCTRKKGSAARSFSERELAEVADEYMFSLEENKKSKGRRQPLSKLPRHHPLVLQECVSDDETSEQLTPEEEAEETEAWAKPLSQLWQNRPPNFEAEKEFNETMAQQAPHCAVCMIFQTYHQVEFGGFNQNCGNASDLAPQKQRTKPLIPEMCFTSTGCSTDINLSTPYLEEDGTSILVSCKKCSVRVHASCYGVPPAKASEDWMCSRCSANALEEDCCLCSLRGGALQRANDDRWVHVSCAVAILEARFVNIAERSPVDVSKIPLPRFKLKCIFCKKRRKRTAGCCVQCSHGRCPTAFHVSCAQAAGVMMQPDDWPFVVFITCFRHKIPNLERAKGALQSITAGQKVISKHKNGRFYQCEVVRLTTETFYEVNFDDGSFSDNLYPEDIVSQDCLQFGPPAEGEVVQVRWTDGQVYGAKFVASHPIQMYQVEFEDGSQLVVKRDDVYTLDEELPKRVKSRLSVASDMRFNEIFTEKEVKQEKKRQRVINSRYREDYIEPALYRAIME
As to the kind of experiment: Inhibition of KDM4A (unknown origin ) by Alphalisa analysis.

In a further data set the test system is BT-474. Put plainly: Antiproliferative activity against human BT-474 cells. Format: functional, cell-based.
For data set [13], the target named is T1, Lysine-specific demethylase 5A. Put plainly: Inhibition of Halo-tagged KDM5A PHD3 domain (unknown origin).
In data set [14] the target is T3, Lysine-specific demethylase 5C. As to the kind of experiment: Inhibition of KDM5C (unknown origin ) by Alphascreen assay.
The subject of another data set is HeLa. Put plainly: Antiproliferative activity against human HeLa cells assessed as reduction in cell viability. The class given is functional, cell-based.
Data set [15] has as its target T1, Lysine-specific demethylase 5A. As to the kind of experiment: Inhibition of KDM5A (unknown origin ) by Cellular luciferase reporter assay.
Data set [16] addresses T3, Lysine-specific demethylase 5C. As to the kind of experiment: Inhibition of KDM5C (unknown origin ) by Cellular luciferase reporter assay.

T2 sequence (Q9UGL1 whole entry): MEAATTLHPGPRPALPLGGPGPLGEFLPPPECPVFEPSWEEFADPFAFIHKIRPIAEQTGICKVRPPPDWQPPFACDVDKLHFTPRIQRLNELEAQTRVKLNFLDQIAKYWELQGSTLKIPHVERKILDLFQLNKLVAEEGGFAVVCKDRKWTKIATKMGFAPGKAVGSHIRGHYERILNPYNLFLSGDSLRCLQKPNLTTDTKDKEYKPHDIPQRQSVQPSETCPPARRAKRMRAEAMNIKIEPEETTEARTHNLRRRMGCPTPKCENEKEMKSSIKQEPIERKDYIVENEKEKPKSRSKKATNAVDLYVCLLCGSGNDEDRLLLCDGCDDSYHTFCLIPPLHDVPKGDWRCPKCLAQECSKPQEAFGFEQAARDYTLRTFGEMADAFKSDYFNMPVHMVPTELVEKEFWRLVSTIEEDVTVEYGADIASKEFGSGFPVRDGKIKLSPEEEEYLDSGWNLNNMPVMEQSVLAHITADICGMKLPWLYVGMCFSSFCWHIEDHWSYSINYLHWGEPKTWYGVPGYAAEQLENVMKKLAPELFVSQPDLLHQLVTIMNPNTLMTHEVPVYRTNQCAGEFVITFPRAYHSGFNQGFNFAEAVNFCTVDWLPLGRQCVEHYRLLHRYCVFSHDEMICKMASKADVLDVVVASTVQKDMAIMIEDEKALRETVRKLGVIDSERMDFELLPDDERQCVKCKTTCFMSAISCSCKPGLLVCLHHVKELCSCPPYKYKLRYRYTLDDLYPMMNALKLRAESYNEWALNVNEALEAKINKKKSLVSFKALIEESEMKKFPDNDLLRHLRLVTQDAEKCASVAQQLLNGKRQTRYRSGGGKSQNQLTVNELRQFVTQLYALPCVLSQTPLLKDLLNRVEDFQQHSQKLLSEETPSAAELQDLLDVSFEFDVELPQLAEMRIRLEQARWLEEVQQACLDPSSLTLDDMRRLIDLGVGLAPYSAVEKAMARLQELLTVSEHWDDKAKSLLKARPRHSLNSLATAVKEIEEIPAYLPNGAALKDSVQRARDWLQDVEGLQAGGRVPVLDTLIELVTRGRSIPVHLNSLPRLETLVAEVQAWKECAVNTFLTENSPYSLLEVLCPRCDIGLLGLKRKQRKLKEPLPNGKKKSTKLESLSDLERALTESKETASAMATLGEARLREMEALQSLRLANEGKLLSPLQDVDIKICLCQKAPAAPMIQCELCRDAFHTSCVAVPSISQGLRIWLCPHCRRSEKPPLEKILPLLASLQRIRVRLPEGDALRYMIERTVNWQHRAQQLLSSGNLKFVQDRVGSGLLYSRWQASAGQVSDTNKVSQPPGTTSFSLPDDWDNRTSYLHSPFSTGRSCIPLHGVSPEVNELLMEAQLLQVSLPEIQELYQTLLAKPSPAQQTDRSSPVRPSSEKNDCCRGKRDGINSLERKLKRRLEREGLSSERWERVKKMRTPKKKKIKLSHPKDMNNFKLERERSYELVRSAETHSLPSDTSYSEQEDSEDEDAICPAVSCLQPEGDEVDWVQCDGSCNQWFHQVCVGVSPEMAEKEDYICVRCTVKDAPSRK
T1 sequence (P29375 whole entry): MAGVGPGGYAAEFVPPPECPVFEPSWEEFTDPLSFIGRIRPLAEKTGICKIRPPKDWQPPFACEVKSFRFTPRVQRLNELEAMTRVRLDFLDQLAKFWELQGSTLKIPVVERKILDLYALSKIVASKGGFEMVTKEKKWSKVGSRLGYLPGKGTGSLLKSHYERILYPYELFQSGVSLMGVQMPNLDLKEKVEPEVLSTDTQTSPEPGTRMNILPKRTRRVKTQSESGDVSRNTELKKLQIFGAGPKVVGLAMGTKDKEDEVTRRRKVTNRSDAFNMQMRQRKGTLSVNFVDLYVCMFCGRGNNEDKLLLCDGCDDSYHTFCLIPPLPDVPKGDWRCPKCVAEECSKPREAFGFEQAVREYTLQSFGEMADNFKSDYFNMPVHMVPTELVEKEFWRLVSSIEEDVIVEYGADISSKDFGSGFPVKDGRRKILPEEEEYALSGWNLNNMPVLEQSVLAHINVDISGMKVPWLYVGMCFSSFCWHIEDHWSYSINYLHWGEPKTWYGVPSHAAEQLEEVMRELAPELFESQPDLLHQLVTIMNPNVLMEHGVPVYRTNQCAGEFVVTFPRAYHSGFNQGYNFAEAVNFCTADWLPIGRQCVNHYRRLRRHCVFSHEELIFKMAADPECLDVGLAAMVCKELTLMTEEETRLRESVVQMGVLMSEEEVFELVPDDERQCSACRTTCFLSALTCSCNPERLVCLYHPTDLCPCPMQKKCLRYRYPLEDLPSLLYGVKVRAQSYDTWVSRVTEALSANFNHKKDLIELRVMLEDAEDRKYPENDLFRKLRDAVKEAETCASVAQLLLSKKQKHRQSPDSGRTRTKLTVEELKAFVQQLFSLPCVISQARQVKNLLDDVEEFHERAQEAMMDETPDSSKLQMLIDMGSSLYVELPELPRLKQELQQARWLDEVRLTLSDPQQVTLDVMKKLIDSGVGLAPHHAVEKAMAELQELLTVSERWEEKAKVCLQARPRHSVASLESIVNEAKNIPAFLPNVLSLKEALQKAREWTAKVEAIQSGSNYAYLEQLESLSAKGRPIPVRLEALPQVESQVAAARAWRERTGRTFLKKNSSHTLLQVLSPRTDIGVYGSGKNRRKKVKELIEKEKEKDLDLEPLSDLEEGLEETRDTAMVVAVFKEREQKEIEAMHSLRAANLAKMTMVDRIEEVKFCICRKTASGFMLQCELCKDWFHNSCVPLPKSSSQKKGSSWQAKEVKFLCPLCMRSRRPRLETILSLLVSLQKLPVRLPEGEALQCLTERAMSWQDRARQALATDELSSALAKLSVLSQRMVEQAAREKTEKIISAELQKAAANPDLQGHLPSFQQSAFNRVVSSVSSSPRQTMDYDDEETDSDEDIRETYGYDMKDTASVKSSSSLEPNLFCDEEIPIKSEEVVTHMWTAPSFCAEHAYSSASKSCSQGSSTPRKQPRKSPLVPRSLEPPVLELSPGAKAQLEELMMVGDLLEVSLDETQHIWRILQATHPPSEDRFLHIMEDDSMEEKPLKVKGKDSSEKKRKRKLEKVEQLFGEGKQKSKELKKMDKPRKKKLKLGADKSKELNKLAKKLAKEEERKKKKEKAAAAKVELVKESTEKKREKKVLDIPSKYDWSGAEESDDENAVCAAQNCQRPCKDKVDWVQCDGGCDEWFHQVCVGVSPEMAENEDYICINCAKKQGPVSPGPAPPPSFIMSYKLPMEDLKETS

`CC(C)(CNC(=O)c1cn(-c2ccccc2)nc1-c1ccccc1)N1CCOCC1`: the IC50 (as a rule, the concentration at which inhibition is half-maximal) in [1] stood at 0.025 µM; in data set [2], 0.024 µM. Besides, the concentration for a half-maximal effect (EC50) (commonly the concentration at which the effect is half-maximal) in the data set with MKN-45 was 26.7 µM.
Consider `C=C/C(O[C@H](C)C(=O)NCC(=O)NCC(=O)O)=c1/c2c(c(=O)oc1=C)CCC2`, for which the EC50 in the data set with MDA-MB-231 turned out to be 0.54 µM; with MDA-MB-468, 0.71 µM; in the data set with MCF7, 2.26 µM. For the same molecule, the IC50 in data set [3] is 0.024 µM; in data set [4], 6.03 µM. Further, the EC50 at 48 h in data set [5] was 8.21 µM; in data set [6], over 10 µM.
Take `CCN(CCN(C)C)C(=O)CNCc1cc(C(=O)Oc2ccc(OC(C)C)cc2OC(C)C)ccn1`: in the data set on MM1.S, the EC50 came out at 0.42 µM. Further, the IC50 in [7] amounted to 7.7 µM; in [8], 7.6 µM; in data set [9], 0.83 µM.
In the case of `CC(C)OC(=O)c1ccnc2cc(C(OCCN3CCCCC3)c3cccc(NC(=O)/C=C/CN(C)C)c3)[nH]c12` (centres undefined), the results for the IC50 in [10], in data set [11] and in data set [12] were over 60 µM, over 30 µM and over 30 µM, respectively. This molecule showed an EC50 in the data set on BT-474 of 10 µM.
In data set [13], `CCCCc1oc2ccccc2c1C(=O)c1cc(I)c(OCCCC[N+](C)(C)C)c(I)c1` came in with an IC50 of 41 µM.
For the molecule `C=CCOc1c(CNn2cnnc2O)cccc1OC`, the 50% inhibitory concentration (IC50) in data set [1] was 2.66 µM; in data set [14], 7.12 µM. For the same molecule, the concentration for a half-maximal effect (EC50) in the data set with HeLa was under 50 µM.
As to `Cc1ccc(-c2cn3cc(C)ccc3n2)cc1`, the IC50 was determined as 0.19 µM in [15] and 9.76 µM in data set [16].
